{
  "source": "patent US12496329B2",
  "about": "“Methods of using and compositions including an incretin analog” (Eli Lilly and Company, priority 2021, dated 2025)",
  "experiment": "MAD study in individuals with diabetes: pharmacodynamics (OGTT, glucose, HbA1c, body weight, appetite VAS)",
  "type": "in vivo, human",
  "parameters": "OGIS Index, change from baseline / Disposition Index, change from baseline: unit not given here",
  "settings": "for Disposition Index, change from baseline / HOMA2-B, change from baseline / HOMA2-IR, change from baseline / Insulin Sensitivity Matsuda Index, change from baseline / Insulinogenic Index, change from baseline / OGIS Index, change from baseline / OGTT C-peptide AUC (0-2 hr), change from baseline / OGTT GCG AUC (0-2 hr), change from baseline / OGTT glucose AUC (0-2 hr), change from baseline / OGTT insulin AUC (0-2 hr), change from baseline / Daily mean plasma glucose, change from baseline / HbA1c, change from baseline: 1.5 mg Dula",
  "text": "Studies are designed to evaluate the safety, tolerability, PD and PK of the GGG tri-receptor agonist (SEQ ID NO:1) in individuals with diabetes. The MAD study is a randomized, investigator- and participant-blind, placebo-controlled, multiple-ascending dose, single-site study conducted in individuals with diabetes (i.e., females or males aged 20-70 years, inclusive, with T2DM for at least 3 months and HbA1c at lead-in and screening of ≥7.0% and ≤10.5% and treated with diet and exercise alone or a stable dose of metformin for at least 3 months prior to screening, with stable body weight for 3 months prior to randomization and with a BMI of 23-50 kg/m^2 at screening).\nDose escalation of the GGG tri-receptor agonist is assessed over 12 weeks in cohorts with a starting dose of 0.5 mg. One cohort of 13 individuals is administered 0.5 mg for 12 weeks. A second cohort of 13 individuals is administered 1.5 mg for 12 weeks. A third cohort of 15 individuals is administered 3.0 mg for 12 weeks. A fourth cohort of 15 individuals is administered 3.0 mg for 4 weeks and then administered 6.0 mg for 8 weeks. A fifth cohort of 16 individuals is administered 3.0 mg for 2 weeks, administered 6.0 mg for 2 weeks, administered 9.0 mg for 4 weeks, and then administered 12 mg for 4 weeks. Alternate dose increment steps may be introduced based on emerging safety and tolerability data from the preceding cohorts, and the dose increment steps can be reduced. As a non-limiting example, in Cohort 4, escalation from starting dose of 3 mg may occur via a step-through dose of 4.5 mg before attaining 6 mg, in Cohort 5, escalation from starting dose of 3 to 12 mg may occur via an additional step through dose level of 4.5 mg, prior to the planned doses 6 and 9 mg. In addition to these proposed alternate regimens in Cohort 4 and Cohort 5, planned dose for escalation between cohorts and within cohorts may be further reduced if warranted by safety or tolerability data.\nC-peptide, glucagon, glucose and insulin are measured for an oral glucose tolerance test (OGTT) during the study using methods known in the art for each of the analytes. In addition, HbA1c is measured at Days 1, 29, 57, 78 and 85, as well as at Week 16. The following parameters are derived from the OGTT to assess insulin resistance and β cell function: Homeostatic model assessment (HOMA)-B, HOMA-IR, insulinogenic index, insulin sensitivity (Matsuda Index) and oral glucose insulin sensitivity (OGIS).\nInsulin sensitivity is calculated as per the below equation: […]\nInsulin sensitivity (Matsuda Index) is calculated as per the below equation: […]\nDisposition index is calculated as (IGI*ISI).\nOGIS is calculated as per the below equation: […]\nSatiety VAS is measured after fasting on Days 1, 8, 15, 22, 29, 36, 43, 50, 57, 64, 71, 78 and 80, as well as at Week 16. Appetite sensations are assessed using a VAS for parameters of hunger, fullness, satiety and prospective food intake, and an overall appetite score is calculated as described above in the SAD study.",
  "key": {"[1]": {"settings": "1.5 mg dulaglutide, 12-week treatment"}},
  "note": "Marks after values point to notes of the source that are not given here.",
  "data": [
    {"substance": "dulaglutide", "values": [
      {"measurement": "Disposition Index, change from baseline", "setting": "Day 2", "value": 0.0812},
      {"measurement": "HOMA2-B, change from baseline", "setting": "Day 2", "value": 31.2},
      {"measurement": "HOMA2-IR, change from baseline", "setting": "Day 2", "value": 0.360},
      {"measurement": "Insulin Sensitivity Matsuda Index, change from baseline", "setting": "Day 2", "value": "−0.0208"},
      {"measurement": "Insulinogenic Index, change from baseline", "setting": "Day 2", "value": 0.119},
      {"measurement": "OGIS Index, change from baseline", "setting": "Day 2", "value": 23.5},
      {"measurement": "OGTT C-peptide AUC (0-2 hr), change from baseline", "setting": "Day 2", "value": 879, "unit": "pmol·h/L"},
      {"measurement": "OGTT GCG AUC (0-2 hr), change from baseline", "setting": "Day 2", "value": -1.21, "unit": "pmol·h/L"},
      {"measurement": "OGTT glucose AUC (0-2 hr), change from baseline", "setting": "Day 2", "value": -9.10, "unit": "mmol·h/L"},
      {"measurement": "OGTT insulin AUC (0-2 hr), change from baseline", "setting": "Day 2", "value": 322, "unit": "pmol·h/L"},
      {"measurement": "Daily mean plasma glucose, change from baseline", "setting": "Day 3", "value": "−2.60* mmol/L"},
      {"measurement": "HbA1c, change from baseline", "setting": "Day 29", "value": "−0.646", "unit": "%"},
      {"measurement": "Disposition Index, change from baseline", "setting": "Day 30", "value": 0.0866},
      {"measurement": "HOMA2-B, change from baseline", "setting": "Day 30", "value": 42.2},
      {"measurement": "HOMA2-IR, change from baseline", "setting": "Day 30", "value": 0.480},
      {"measurement": "Insulin Sensitivity Matsuda Index, change from baseline", "setting": "Day 30", "value": "−0.476"},
      {"measurement": "Insulinogenic Index, change from baseline", "setting": "Day 30", "value": 0.130},
      {"measurement": "OGIS Index, change from baseline", "setting": "Day 30", "value": 19.4},
      {"measurement": "OGTT C-peptide AUC (0-2 hr), change from baseline", "setting": "Day 30", "value": 1350, "unit": "pmol·h/L"},
      {"measurement": "OGTT GCG AUC (0-2 hr), change from baseline", "setting": "Day 30", "value": -4.52, "unit": "pmol·h/L"},
      {"measurement": "OGTT glucose AUC (0-2 hr), change from baseline", "setting": "Day 30", "value": -10.6, "unit": "mmol·h/L"},
      {"measurement": "OGTT insulin AUC (0-2 hr), change from baseline", "setting": "Day 30", "value": 519, "unit": "pmol·h/L"},
      {"measurement": "Daily mean plasma glucose, change from baseline", "setting": "Day 31", "value": "−3.89* mmol/L"},
      {"measurement": "HbA1c, change from baseline", "setting": "Day 57", "value": "−0.997", "unit": "%"},
      {"measurement": "Daily mean plasma glucose, change from baseline", "setting": "Day 59", "value": "−3.21* mmol/L"},
      {"measurement": "HbA1c, change from baseline", "setting": "Day 78", "value": "−1.07", "unit": "%"},
      {"measurement": "Disposition Index, change from baseline", "setting": "Day 79", "value": 0.0481},
      {"measurement": "HOMA2-B, change from baseline", "setting": "Day 79", "value": 25.9},
      {"measurement": "HOMA2-IR, change from baseline", "setting": "Day 79", "value": 0.600},
      {"measurement": "Insulin Sensitivity Matsuda Index, change from baseline", "setting": "Day 79", "value": "−1.14"},
      {"measurement": "Insulinogenic Index, change from baseline", "setting": "Day 79", "value": 0.105},
      {"measurement": "OGIS Index, change from baseline", "setting": "Day 79", "value": 38.1},
      {"measurement": "OGTT C-peptide AUC (0-2 hr), change from baseline", "setting": "Day 79", "value": 354, "unit": "pmol·h/L"},
      {"measurement": "OGTT GCG AUC (0-2 hr), change from baseline", "setting": "Day 79", "value": -1.28, "unit": "pmol·h/L"},
      {"measurement": "OGTT glucose AUC (0-2 hr), change from baseline", "setting": "Day 79", "value": -8.44, "unit": "mmol·h/L"},
      {"measurement": "OGTT insulin AUC (0-2 hr), change from baseline", "setting": "Day 79", "value": 188, "unit": "pmol·h/L"},
      {"measurement": "Daily mean plasma glucose, change from baseline", "setting": "Day 80", "value": "−3.73* mmol/L"},
      {"measurement": "HbA1c, change from baseline", "setting": "Day 85", "value": "−0.960", "unit": "%"},
      {"measurement": "HbA1c, change from baseline", "setting": "Day 106", "value": "−0.538", "unit": "%"},
      {"measurement": "fullness scores", "setting": "[1]", "value": "increase from baseline"},
      {"measurement": "hunger scores", "setting": "[1]", "value": "decrease from baseline"},
      {"measurement": "prospective food consumption scores", "setting": "[1]", "value": "greatest decreases from baseline"},
      {"measurement": "satiety scores", "setting": "[1]", "value": "increase from baseline"},
      {"measurement": "maximum decrease from baseline in mean body weight", "setting": "1.5 mg, 12-weeks treatment", "value": 1.3, "unit": "kg"},
      {"measurement": "decrease from baseline in mean waist circumference", "setting": "1.5 mg, Day 85", "value": 4.9, "unit": "cm"}
    ]}
  ]
}
